The text below walks through data of patent publication US10967047B2, “Mitochondrial antiviral-signaling (MAVS) polypeptides and detection and use thereof” (University of Vermont and State Agricultural College, priority 2016, dated 2021).

Test [1] has as its system MAVS. The test can be described thus: MAVS oligomerization in MEFs (semi-denaturing gel electrophoresis, immunoblot, densitometry). Type of test: cell-based, mouse. As for the experimental part: 5′ triphosphate double-stranded RNA (5′-ppp-dsRNA), a synthetic ligand for RIG-I, was purchased from InVivoGen and used at a concentration of 1 μg/mL. Mitochondria-targeted antioxidant MitoQ and the mitochondria-targeted superoxide generator MitoPQ, were gifts of M. Murphy (G. F. Kelso et al., (2001) The Journal of biological chemistry 276, 4588-4596). The control reagent TPP was purchased from Sigma. Reagents were added to cells at concentrations as indicated. GOx was purchased from Sigma and added to cultured cells at a final concentration of 0.1 U/mL. Iodoacetamide was from Thermo Fisher, and used at a final concentration of 100 μM.
Cultured MEFs or human PBMCs were lysed in a sample buffer containing 2% SDS and insoluble cell fragments were removed by centrifugation. Plasma samples derived from SLE patients were collected and stored at −20° C. until gel electrophoresis. BCA protein assay (Thermo Scientific) was used to determine protein concentrations in all samples were resolved with SDS-PAGE under denaturing conditions. Gels were transferred to PVDF membranes using a Trans-Blot Turbo Transfer System (BioRad).
SDD-AGE was performed according to a published protocol with minor modifications (Alberti et al., (2009) Cell 137, 146-158). In brief, mitochondria were resuspended in sample buffer (0.5×TBE, 10% glycerol, 2% SDS, and 0.0025% bromophenol blue) and loaded onto a vertical 1.5% agarose gel. After electrophoresis in the running buffer (1×TBE and 0.1% SDS) for 35 min with a constant voltage of 75 V at 4° C., proteins were transferred to PVDF membranes using a Trans-Blot Turbo Transfer System (BioRad) for immunoblotting.
PVDF membranes were blocked in 5% solution of nonfat powdered milk in Tris-buffered saline. Antibodies used were specific for MAVS and Actin (Santa Cruz); RIPK1 and TRAF2 (BD Biosciences); TANK, TRADD, RIG-I, and GAPDH (Cell Signaling); MDAS and COX4 (Abcam), Alexa 488 (Life Technologies), and IRF3 (Thermo Fisher), respectively. Immunoreactive proteins were visualized using HRP-labeled conjugates (Jackson Immuno Research) and developed using Clarity Western ECL substrate (Biorad). Chemiluminescence was detected and recorded using a Biorad Chemidoc instrument. Densitometric measurements were performed in Image Lab image acquisition and analysis software (Biorad).

The test system of test [2] is MEFs. The test can be described thus: Mitochondrial transmembrane potential (ΔΨm) by FACS using TMRE in MEFs. It is filed as cell-based, mouse. Here is the method: ROS generation was measured using oxidized, green-fluorescent dihydrocalcein acetoxymethylester (DHC-AM) (Life Technologies) and flow cytometry. Single-cell suspensions of MEFs were prepared and ROS was assessed with 5 μM DHC-AM staining in culture medium for 30 minutes (A. Rohnstock et al., (2007) Toxicol in Vitro 21, 1552-1562). 25 nM of cationic cell permeant dye tetramethylrhodamine ethylester (TMRE; Life Technologies) (R. C. Scaduto, Jr. et al., (1999), Biophysical journal 76, 469-477) were used to measure ΔΨm. Additionally, MitoSox Red and MitoTracker Deep Red (Life Technologies) were used to measure mitochondrial ROS and mitochondrial mass, respectively. Flow cytometry was carried out on an LSRII (BD Biosciences), and FlowJo software (Tree Star) was used for analysis.
A general note: Flow cytometry measures light scatter and fluorescence of single cells or particles in a stream.

In test [3] the test system is Drp1. The test is described as follows: Phosphorylated Drp1 (Drp1 616p) at purified mitochondria, densitometry normalized to Cox IV. It is filed as cell-based. Here is the method:
To activate MAVS commercially available 5′-ppp-RNA was used at a concentration of 1 μg/ml, which activates RIG-I helicase. As an alternative GOx was used as previously described [Szeto, H. H., Br J Pharmacol, 2014. 171(8): p. 2029-50]. Mitochondria were purified by anti-Tom22 magnetic beads as previously described [Perl, A., et al., Int Rev Immunol, 2004. 23(3-4): p. 293-313]. Changes in the level of Drp1^616p at mitochondria were determined by densitometry, which was normalized to the level of Cox IV (FIG. 14A-B).

Take `COC1=C(OC)C(=O)C(CCCCCCCCCC[P+](c2ccccc2)(c2ccccc2)c2ccccc2)=C(C)C1=O.CS(=O)(=O)[O-]` [MitoQ, [10-(4,5-Dimethoxy-2-methyl-3,6-dioxo-1,4-cyclohexadien-1-yl)decyl](triphenyl)phosphonium methanesulfonate]: in test [1] (MEFs pre-treated with 100 μM MitoQ, then GOx, oligomer/monomer ratio by densitometry (FIG. 3B)), the “decrease in MAVS oligomers” value was at least 80%. Also, the “decrease in MAVS oligomerization” value in test [1] (MEFs pre-treated with 100 μM MitoQ, then SINV infection, densitometry (FIG. 3B)) is on record as about 40%. For the same compound, the “MAVS oligomerization after pretreatment” value in test [1] (MEFs pretreated (100 μM) before GOx or SINV (FIG. 3A)) is given as “reduced MAVS oligomerization”. In addition, the “mitochondrial hyperpolarization (ΔΨm) with MitoQ” value in test [2] (MEF, GOx+/−MitoQ and SINV+/−MitoQ, TMRE (FIG. 3C)) is given as “decreased mitochondrial hyperpolarization”. Also, the “level of phosphorylated Drp1 at mitochondria with MitoQ pre-treatment” value in test [3] (same cells pre-treated with MitoQ, versus 5′-ppp-RNA or GOx alone (FIG. 14A-B)) was “higher levels”.
Consider glucose oxidase [GOx], for which, in test [1] (MEFs, substance alone (MitoPQ 1 to 10 nM, FIG. 2H; GOx, FIG. 2A)), the “induction of MAVS oligomerization without viral infection” value is “sufficient to induce MAVS oligomerization”. The “ΔΨm induced by the substance” value in test [2] (MAVS-WT MEFs, not observed in MAVS-KO (FIG. 1B, 2D)) was “increased ΔΨm”. In addition, the “level of phosphorylated Drp1 at mitochondria after MAVS activation” value in test [3] (5′-ppp-RNA 1 μg/ml or GOx (FIG. 14A-B)) is “lower levels of phosphorylated Drp1 at mitochondria”.
